Values after ≈ are worked out from the molar mass of the structure shown. Like-named read-outs stand apart in the source and are kept apart here.
Legend:
[1] = in vivo, cited from earlier work
K. pneumoniae 1434760 = assay: Impact of pH and human urine on MIC; type: cell-based
Description: (§1) Studies were conducted by IHMA, Schaumberg, IL. […] MICs were determined by broth […] methodology ([30], [31]). […] Antibacterial panels containing 100 μl of antibacterial solution were inoculated with the adjusted inocula using 95-prong inoculator sets. Test panels were read visually after incubation following CLSI guidelines for each organism. MIC values corresponded to the first well with no visible growth.

[2] = tested on: K. pneumoniae ATCC BAA-1705; assay: Impact of pH and human urine on MIC; type: cell-based; settings: Klebsiella pneumoniae, ATCCBAA1705, read-out: Median or modal MIC
Description: as §1

E. coli 1480076 = assay: Impact of pH and human urine on MIC; type: cell-based
Description: as §1

[3] = tested on: K. pneumoniae ATCC 700603; assay: Impact of pH and human urine on MIC; type: cell-based; settings: Klebsiella pneumoniae, ATCC700603, read-out: Median or modal MIC
Description: as §1

K. pneumoniae 1266420 = assay: Impact of pH and human urine on MIC; type: cell-based; settings: Klebsiella pneumoniae
Description: as §1

E. coli ATCC 25922 = assay: Impact of pH and human urine on MIC; type: cell-based; settings: Escherichia coli, ATCC25922, read-out: Median or modal MIC
Description: as §1

[4] = tested on: E. coli NCTC 13353 expressing CTX-M-15; settings: approved QC range; ref CLSI AST Subcommittee, February 2021; cited from earlier work
[5] = tested on: 1,066 clinical urinary tract infection isolates resistant to both amoxicillin-clavulanic acid and levofloxacin; settings: VNRX-5236 fixed at 4 μg/ml in the combination; cited from earlier work
[6] = tested on: K. pneumoniae UNT-023 expressing KPC, TEM-1, and SHV-11; assay: microbe, parasite or virus in culture; type: cell-based; settings: Klebsiella pneumoniae
[7] = tested on: K. pneumoniae UNT-023 expressing KPC, TEM-1, and SHV-11; assay: animal or person; type: in vivo; settings: Klebsiella pneumoniae, in Mus musculus, 1 h
[8] = tested on: K. pneumoniae ATCC BAA-1705 expressing KPC-2, SHV, and TEM; settings: approved QC range; ref CLSI AST Subcommittee, February 2021; cited from earlier work
[9] = tested on: K. pneumoniae ATCC BAA-2814 expressing KPC-3, SHV-11, and TEM; settings: approved QC range; ref CLSI AST Subcommittee, February 2021; cited from earlier work
[10] = cited from earlier work
[11] = tested on: strains of Enterobacterales expressing serine β-lactamases; assay: organism not typed; type: cell-based
[12] = tested on: strains utilized in time-kill studies; assay: MIC summary across strains utilized in time-kill studies; type: cell-based, E. coli, E. cloacae, K. pneumoniae; settings: across all four strains

In the case of `Nc1nc(/C(=C/CC(=O)O)C(=O)N[C@@H]2C(=O)N3C(C(=O)O)=CCS[C@H]23)cs1` [CTB, ceftibuten], the oral bioavailability ([1]; po) is given as roughly 65%, the plasma half-life [1] is given as roughly 2.4 h and the renal excretion [1] is given as roughly 56%. It also gave an MIC (K. pneumoniae 1434760; Klebsiella pneumoniae, 1434760, pH 6, read-out: Median or modal MIC) greater than 128 µg/mL, an MIC (K. pneumoniae 1434760; Klebsiella pneumoniae, 1434760, pH 7.2, read-out: Median or modal MIC) of 128 µg/mL (≈ 312 µM) and an MIC (K. pneumoniae 1434760; Klebsiella pneumoniae, 1434760, read-out: Median or modal MIC) greater than 128 µg/mL. The MIC ([2]; Human urine, pH 6) was 2 µg/mL (≈ 4.87 µM), the MIC ([2]; Human urine, pH 7.2) was 2 µg/mL (≈ 4.87 µM) and the MIC ([2]; MHII broth) was 8 µg/mL (≈ 19.5 µM). The MIC (E. coli 1480076; Escherichia coli, 1480076, read-out: Median or modal MIC) was 128 µg/mL (≈ 312 µM), the MIC (E. coli 1480076; Escherichia coli, 1480076, Human urine, pH 6, read-out: Median or modal MIC) was 32 µg/mL (≈ 78 µM) and the MIC (E. coli 1480076; Escherichia coli, 1480076, Human urine, pH 7.2, read-out: Median or modal MIC) was 32 µg/mL (≈ 78 µM). The MIC ([3]; Human urine, pH 6) was 1 µg/mL (≈ 2.44 µM), the MIC ([3]; Human urine, pH 7.2) was 0.5 µg/mL (≈ 1.22 µM) and the MIC ([3]; MHII broth) was 0.5 µg/mL (≈ 1.22 µM). The MIC (K. pneumoniae 1266420; Human urine, pH 6, read-out: Median or modal MIC) was 64 µg/mL (≈ 156 µM), the MIC (K. pneumoniae 1266420; Human urine, pH 7.2, read-out: Median or modal MIC) was 16 µg/mL (≈ 39 µM) and the MIC (K. pneumoniae 1266420; MHII broth, read-out: Median or modal MIC) was 32 µg/mL (≈ 78 µM). It also gave an MIC (E. coli ATCC 25922; Human urine, pH 6) of 0.25 µg/mL (≈ 0.609 µM), an MIC (E. coli ATCC 25922; Human urine, pH 7.2) of 0.12 µg/mL (≈ 0.292 µM) and an MIC (E. coli ATCC 25922; MHII broth) of 0.25 µg/mL (≈ 0.609 µM). The “QC range (MIC)” value [4] was 16 to 64 µg/mL, the MIC90 [5] was greater than 32 µg/mL and the MIC [6] was 64 µg/mL (≈ 156 µM). The ED50 [7] was greater than 128 mg/kg, the “QC range (MIC)” value [8] was 4 to 32 µg/mL and the “QC range (MIC)” value [9] was 8 to 32 µg/mL. For the same compound, the “human plasma protein binding” value [10] was roughly 60%, the MIC50 [11] was 0.12 µg/mL (≈ 0.292 µM) and the MIC90 [11] was 1 µg/mL (≈ 2.44 µM). For the same compound, the MIC range [12] was 16 to 128 µg/mL.

Source: article PMC8284453 (Antimicrobial Agents and Chemotherapy, 2021)
